Results from patent US4404230A, “4-Hydroxy-1,2-Benzisothiazol-3(2H)-one-1,1-dioxides and salts thereof” (priority 1980, dated 1983).

Key:
[1] = Acid-stability in 0.1 N hydrochloric acid; format: physicochemical; conditions: 1% in 0.1 N hydrochloric acid, room temperature, 27 days
Experimental: For the stability test, substance B at a concentration of 1% was dissolved in 0.1 N hydrochloric acid and kept at room temperature for 27 days. […] The solid substance was furthermore tested in daylight and at 60° C. in the absence and in the presence of light for 4 weeks.

[2] = system: mice; assay: Effect on motility of mice (sedative and stimulating effect); format: in vivo, Chbb:NMRI-mice; conditions: 200 mg/kg p.o.; for % motility: vs control
Experimental: Eight female Chbb:NMRI-mice (SPF) having a body weight from 20 to 26 g were tested in light beam cages after oral administration of the test compound in a suspension of 1% tylose. 30, 90 and 150 minutes after administration of the test compound, their motility was measured for 5 minutes each; a control group received only the solvent (tylose:carboxymethyl cellulose). The change in motility, given in percent with regard to that of the control group, was determined.

[3] = system: mice; assay: Effect on reserpine-hypothermia in mice; format: in vivo, Chbb:NMRI-mice
Experimental: In analogy to Askew [Life Sci. 2, 275, (1963)] hypothermia was induced by s.c. administration of 3 mg/kg of reserpine in male Chbb:NMRI-mice (SPF) having a body weight of 20-26 gm. […] A control group received only the solvent p.o.; 1 to 4 hours after administration the temperature was measured every hour. The values given in the table are at average temperature values ±SD.

[4] = system: rats; assay: Ulcerogenic effect in rats; format: in vivo, Chbb:THOM-rats; conditions: 200 mg/kg p.o.
Experimental: 200 mg/kg of substance B in 1% tylose suspension were administered perorally to 10 male and female (1:1) Chbb:THOM-rats (SPF) having an approximate body weight of 200 gm. A control group received only the suspension agent. After 4 hours all animals were killed, the stomach was dissected and inspected with regard to lesions of the mucosa.

[5] = system: anesthetized cats; assay: Effect on the blood circulation in anesthetized cats; format: in vivo; conditions: 10 mg/kg i.v.
Experimental: In 3 adult anesthetized cats the following parameters were measured:
The arterial blood pressure in the Arteria carotis by means of a Statham pressure transducer;
The heart rate by means of a Grass-tachograph;
The respiration rate by means of a Fleisch pneumotachograph;
10 mg/kg of substance B as a solution in aqua dist. were administered i.v.

[6] = system: Escherichia coli ATCC 9637; assay: Bacteriostasis, serial dilution test; format: cell-based; conditions: 320 μg/ml
Experimental: (§1) Substance B was tested with regard to its bacteria- and fungi-inhibiting effect by the serial dilution test and agar diffusion test.

[7] = system: Pseudomonas aeruginosa Hbg.; assay: Bacteriostasis, serial dilution test; format: cell-based; conditions: 320 μg/ml
Experimental: as §1

[8] = system: Sc. pyogenes ATCC 8688; assay: Bacteriostasis, serial dilution test; format: cell-based; conditions: 320 μg/ml
Experimental: as §1

[9] = system: Serratia marcescens ATCC 13880; assay: Bacteriostasis, serial dilution test; format: cell-based; conditions: 320 μg/ml
Experimental: as §1

[10] = system: Staphylococcus aureus SG 511; assay: Bacteriostasis, serial dilution test; format: cell-based; conditions: 320 μg/ml
Experimental: as §1

[11] = system: Streptococcus Aronson; assay: Bacteriostasis, serial dilution test; format: cell-based; conditions: 320 μg/ml
Experimental: as §1

[12] = system: Escherichia coli ATCC 9637; assay: Bacteriostasis, agar diffusion test; format: cell-based; conditions: 16,000 μg/ml
Experimental: as §1

[13] = system: Staphylococcus aureus SG 511; assay: Bacteriostasis, agar diffusion test; format: cell-based; conditions: 16,000 μg/ml
Experimental: as §1

[14] = system: Streptococcus Aronson; assay: Bacteriostasis, agar diffusion test; format: cell-based; conditions: 16,000 μg/ml
Experimental: as §1

[15] = system: rats; assay: Effect on diuresis in water-loaded rats; format: in vivo, Chbb:THOM-rats; conditions: for Cl^- excretion / K^+ excretion / Na^+ excretion / Urine: 5 hours
Experimental: Male Chbb:THOM-rats (SPF) having a body weight of 180-210 gm were kept away from food with free access to water for 24 hours before the test. Substance B was administered orally at dosages of 50, 100 and 200 mg/kg in aqua dist. solution of the rate of 1 ml/100 gm body weight to 6 animals/dose. Additionally, 4 ml water/100 gm body weight were administered orally. A control group received only the solvent and the same additional amount of water.
Five hours after treatment, the excreted volume of urine of each group was measured, and the concentration of Na^+, K^+ and Cl^- was determined photometrically and complexometrically.

[16] = system: eye of the rabbit; assay: Local compatibility in the eye of the rabbit (mucosa compatibility); format: in vivo
Excerpt: Groups of 4 rabbits each of both sexes were given 1 drop of a 1% solution of substance B in aqua dist. into the conjunctival sack of the eye. […] The second eye of each animal served as control.

[17] = system: Dog; assay: Test for acute toxicity, dog; conditions: for Animals which died: 2 animals
Experimental: The acute toxicity was determined after oral administration of substance B to male and female mice, rats and dogs. The substance was administered to mice and rats in the form of a suspension in tylose and to dogs in the form of a solution in water.

[18] = system: Salmonella typhimurium; assay: Prior serial dilution test for inhibition of microorganism growth (AMES-system); format: cell-based; conditions: highest dosage used
Experimental: Compound B was tested at concentrations of 0.25, 2.5, 5 and 10 mg/plate.

[19] = vs values before administration, N = 3

SMILES: O=C1NS(=O)(=O)c2cccc(O)c21.[Na]
- stability in acid medium [1]: No changes could be detected
- effect on motility of mice (in words) [2]: did not affect the motility of mice
- Motility of mice ([2]; 30-35 min): 92 ± 21 contacts/animal
- % motility ([2]; 30-35 min): 102%
- Motility of mice ([2]; 90-95 min): 84 ± 28 contacts/animal
- % motility ([2]; 90-95 min): 101%
- Motility of mice ([2]; 150-155 min): 49 ± 17 contacts/animal
- % motility ([2]; 150-155 min): 72%
- body temperature ([3]; 100 mg/kg p.o., 1 hour): 26.0 °C
- body temperature ([3]; 100 mg/kg p.o., 2 hours): 26.7 °C
- body temperature ([3]; 100 mg/kg p.o., 3 hours): 26.6 °C
- body temperature ([3]; 100 mg/kg p.o., 4 hours): 26.8 °C
- body temperature ([3]; 400 mg/kg p.o. [sic], 1 hour): 24.0 °C
- body temperature ([3]; 400 mg/kg p.o. [sic], 2 hours): 24.7 °C
- body temperature ([3]; 400 mg/kg p.o. [sic], 3 hours): 25.3 °C
- body temperature ([3]; 400 mg/kg p.o. [sic], 4 hours): 25.9 °C
- effect on reserpine-induced hypothermia (in words) ([3]; 40 and 100 mg/kg p.o.): does not show an effect on hypothermia in mice induced by reserpine
- ulcerogenic effect (in words) [4]: does not show any ulcerogenic effect in rats
- Animals having stomach lesions ([4]; 4 hours, N = 10): 0
- effect on arterial blood pressure, heart rate and respiration rate (in words) [5]: does not show any effect on the arterial blood pressure, the heart rate and the respiration rate
- Change in % blood pressure [5, 19]: +1%
- Change in % heart rate [5, 19]: -1%
- Change in % respiration rate [5, 19]: -2%
- inhibiting effect [6]: did not show any inhibiting effect
- inhibiting effect [7]: did not show any inhibiting effect
- inhibiting effect [8]: did not show any inhibiting effect
- inhibiting effect [9]: did not show any inhibiting effect
- inhibiting effect [10]: did not show any inhibiting effect
- inhibiting effect [11]: did not show any inhibiting effect
- inhibiting effect [12]: did not show any inhibiting effect
- inhibiting effect [13]: did not show any inhibiting effect
- inhibiting effect [14]: did not show any inhibiting effect
- Cl^- excretion ([15]; 50 mg/kg p.o.): 616.4 Microval/kg
- K^+ excretion ([15]; 50 mg/kg p.o.): 456.6 Microval/kg
- Na^+ excretion ([15]; 50 mg/kg p.o.): 456.6 Microval/kg
- Urine ([15]; 50 mg/kg p.o.): 45.7 mL/kg
- Cl^- excretion ([15]; 100 mg/kg p.o.): 325.5 Microval/kg
- K^+ excretion ([15]; 100 mg/kg p.o.): 321.5 Microval/kg
- Na^+ excretion ([15]; 100 mg/kg p.o.): 401.9 Microval/kg
- Urine ([15]; 100 mg/kg p.o.): 40.2 mL/kg
- Cl^- excretion ([15]; 200 mg/kg p.o.): 535.7 Microval/kg
- K^+ excretion ([15]; 200 mg/kg p.o.): 425.1 Microval/kg
- Na^+ excretion ([15]; 200 mg/kg p.o.): 467.6 Microval/kg
- Urine ([15]; 200 mg/kg p.o.): 42.5 mL/kg
- effect on diuresis (in words) ([15]; 50, 100 and 200 mg/kg p.o.): does not show any effect on diuresis in rats
- change in the pupil ([16]; 1% solution): no change in the pupil
- irritation of the conjunctiva ([16]; 1% solution): No irritation of the conjunctiva
- change in the pupil ([16]; 10%): no change in the pupil
- irritation of the conjunctiva ([16]; 10%): No irritation of the conjunctiva
- incompatibility when dropped into the eye (in words) ([16]; rabbit, in vivo): does not show any incompatibility
- Animals which died ([17]; 5 g/kg oral, 1 day): 0
- Animals which died ([17]; 5 g/kg oral, 7 days): 0
- Animals which died ([17]; 5 g/kg oral, 14 days): 0
- deaths (in words) ([17]; 5 g/kg oral, during the observation time): no animals died
- behavior ([17]; dog, in vivo, po): completely normal behavior
- toxic symptoms ([17]; dog, in vivo, po): no toxic symptoms could be observed
- inhibition of the microorganism growth [18]: did not show an inhibition of the microorganism growth
